One may read the Cmax as the peak of the concentration-time curve.

The nature of the data set: Plasma dileucine pharmacokinetics after a single dose of leucine or whey protein isolate in healthy men. As to conditions: male, human, in vivo. On the procedure: Five healthy men between the ages of 18-50 years of age were recruited to participate in this study. Prior to beginning the study, all participants signed an informed consent document and complete a healthy history questionnaire to determine study eligibility.
All participants reported to the laboratory between 06:00-10:00 hours and observing an 8-10 hour fast. For the two days prior to testing, study participants were given a standardized meal plan to help control for changes in dietary intake prior to testing. Upon arrival, participants heart rate, blood pressure, body mass, height and body composition were measured using DEXA. Prior to body composition assessment, study participants were tested for appropriate hydration status. Using standard multiple sample phlebotomy approaches, approximately 10 mL of venous blood was collected from a forearm vein prior to being administrated a single dose of either leucine (2-gram dose) or whey protein isolate (25-gram dose). In a time course fashion, subsequent venous blood samples were collected 30, 60, 90, 120 and 240 minutes after ingestion of their assigned supplement. Participants were provided 250 mL of cold water to ingest after each blood collection. Study participants returned approximately 3-7 days after completion of the previous study visit to complete an identical testing session as previously described while receiving the alternative treatment.

Consider `CC(C)C[C@H](N)C(=O)O` [leucine], for which the “AUC Dileucine” value was found to be 37.1 ± 20.2 µM·h, the peak level (Cmax) was 610 ± 430 nM and the “increase of plasma dileucine levels compared to whey protein (as AUC)” value is listed as 40.5%.

Values taken from patent US20230053297A1, “COMPOSITIONS AND METHODS TO INCREASE SERUM DILEUCINE LEVELS” (Ingenious Ingredients, LP, priority 2021, published 2023).
